Reference: patent US20170050957A1, “4-AMINO-6-(HETEROCYCLIC)PICOLINATES AND 6-AMINO-2-(HETEROCYCLIC)PYRIMIDINE-4-CARBOXYLATES AND THEIR USE AS HERBICIDES” (Dow AgroSciences LLC, priority 2013, published 2017)
Read-outs that look alike come from different tables or passages of the source.

Assays:
[1] = test system: Key Grass and Sedge Weeds as well as Grass Crops; assay: Post-emergent Test II herbicidal activity (Table 16); type: in vivo; conditions: post-emergence, 336 h, 14 d; for pest or weed control at 35 g/ha: 35 g ai/ha; for pest or weed control at 70 g/ha: 70 g ai/ha; for pest or weed control at 140 g/ha: 140 g ai/ha
Procedure, shortened: (§1)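 Plants at first-second true leaf stage, grown 7-21 d in greenhouse (~15 h photoperiod, 23-29 °C day), were track-sprayed at 187 L/ha with compound in acetone/DMSO/water/isopropanol/crop oil/Triton X-155 at a high rate plus 1/2× to 1/16× dilutions. Injury scored visually after 14 d versus untreated plants, 0 (none) to 100% (complete kill).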

[2] = test system: giant foxtail (Setaria faberi); assay: Post-emergent Test I herbicidal activity; type: in vivo; conditions: 3.96 Kg ai/ha
Procedure: (§2) Post-emergent Test I Seeds test species were obtained from commercial suppliers and planted into a 5″-round pot containing soil-less media mix (metro-mix 360®, Sun Gro Horticulture). Postemergence treatments were planted 8-12 days prior to application and cultured in a greenhouse equipped with supplemental light sources to provide a 16 h photoperiod at 24-29° C. All pots were surface irrigated. Approximately 10 milligrams (mg) of each compound were dissolved in 1.3 mL acetone-DMSO (97:3, v/v) and diluted with 4.1 mL water-isopropanol-crop oil concentrate (78:20:2, v/v/v) containing 0.02% Triton X-155. Treatments were serial diluted with the above formulation solvent to provide 1.85, 0.926, 0.462 and 0.231 mg/mL of test compound delivered in 2.7 mL/pot (roughly equivalent to 4.0, 2.0, 1.0, and 0.5 kg/ha, respectively). Formulated compounds were applied using a DeVilbiss® compressed air sprayer at 2-4 psi. Following treatment, pots were returned to the greenhouse for the duration of the experiment. All pots were sub-irrigated as need to provide optimum growing conditions. All pots were fertilized one time per week by subirrigating with Peters Peat-Lite Special® fertilizer (20-10-20). Phytotoxicity ratings were obtained 10 days after treatment postemergence applications. All evaluations were made visually on a scale of 0 to 100 where 0 represents no activity and 100 represents complete plant death. Visual assessments of plant injury were made based on growth reduction, discoloration, leaf deformity and necrosis

[3] = test system: sunflower (Helianthus annuus); assay: Post-emergent Test I herbicidal activity; type: in vivo; conditions: 3.96 Kg ai/ha
Procedure: as §2

wild oats (Avena fatua) = assay: Post-emergent Test I herbicidal activity; type: in vivo; conditions: 3.96 Kg ai/ha
Procedure: as §2

[4] = test system: barnyardgrass (Echinochloa crus-galli); assay: Post-emergent Test I herbicidal activity; type: in vivo; conditions: 3.96 Kg ai/ha
Procedure: as §2

[5] = test system: Key Broadleaf Weed and Crop Species; assay: Post-emergent Test II herbicidal activity (Table 15); type: in vivo; conditions: post-emergence, 336 h, 14 d; for pest or weed control at 35 g/ha: 35 g ai/ha; for pest or weed control at 70 g/ha: 70 g ai/ha; for pest or weed control at 140 g/ha: 140 g ai/ha
Procedure, shortened: as §1

undesirable vegetation = assay: Herbicidal activity, comparison X is CF with X is CH; type: in vivo; conditions: 1.08 and 1.09 vs 1.21 and 1.22; 1.15 and 1.16 vs 1.23 and 1.24; A is A15
[6] = Cyperus esculentus, yellow nutsedge (Cyperus esculentus), read-out: Visual Growth Reduction (%) 14 Days After Application, CYPES
[7] = Echinochloa crus-galli, barnyardgrass (Echinochloa crus-galli), read-out: Visual Growth Reduction (%) 14 Days After Application, ECHCG
[8] = Oryza sativa, rice (Oryza sativa), read-out: Visual Growth Reduction (%) 14 Days After Application, ORYSA
[9] = Setaria faberi, giant foxtail (Setaria faberi), read-out: Visual Growth Reduction (%) 14 Days After Application, SETFA
[10] = Triticum aestivum, wheat, spring (Triticum aestivum), read-out: Visual Growth Reduction (%) 14 Days After Application, TRZAS
[11] = Zea mays, maize, corn (Zea mays), read-out: Visual Growth Reduction (%) 14 Days After Application, ZEAMX
[12] = Abutilon theophrasti, velvetleaf (Abutilon theophrasti), read-out: Visual Growth Reduction (%) 14 Days After Application, ABUTH
[13] = Amaranthus retroflexus, redroot pigweed (Amaranthus retroflexus), read-out: Visual Growth Reduction (%) 14 Days After Application, AMARE
[14] = Brassica napus, oilseed rape, canola (Brassica napus), read-out: Visual Growth Reduction (%) 14 Days After Application, BRSNN
[15] = Chenopodium album, lambsquarters (Chenopodium album), read-out: Visual Growth Reduction (%) 14 Days After Application, CHEAL
[16] = Euphorbia heterophylla, wild poinsettia (Euphorbia heterophylla), read-out: Visual Growth Reduction (%) 14 Days After Application, EPHHL
[17] = Helianthus annuus, sunflower (Helianthus annuus), read-out: Visual Growth Reduction (%) 14 Days After Application, HELAN

SMILES | pest or weed control at 35 g/ha [1, 6] | pest or weed control at 70 g/ha [1, 6] | pest or weed control at 140 g/ha [1, 6] | pest or weed control at 35 g/ha [1, 7] | pest or weed control at 70 g/ha [1, 7] | pest or weed control at 140 g/ha [1, 7] | pest or weed control at 35 g/ha [1, 8] | pest or weed control at 70 g/ha [1, 8] | pest or weed control at 140 g/ha [1, 8] | pest or weed control at 35 g/ha [1, 9] | pest or weed control at 70 g/ha [1, 9] | pest or weed control at 140 g/ha [1, 9] | pest or weed control at 35 g/ha [1, 10] | pest or weed control at 70 g/ha [1, 10] | pest or weed control at 140 g/ha [1, 10] | pest or weed control at 35 g/ha [1, 11] | pest or weed control at 70 g/ha [1, 11] | pest or weed control at 140 g/ha [1, 11] | pest or weed control at 35 g/ha [5, 12] | pest or weed control at 70 g/ha [5, 12] | further results
COC(=O)c1nc(-c2ccc3ccn(C)c3c2)c(F)c(N)c1Cl [Compound 1.10] | 0 to 29% | 0 to 29% | 0 to 29% | 0 to 29% | 0 to 29% | 0 to 29% | 0 to 29% | 0 to 29% | 0 to 29% | 0 to 29% | 0 to 29% | 0 to 29% | 0 to 29% | 0 to 29% | 0 to 29% | 0 to 29% | 0 to 29% | 0 to 29% | 0 to 29% | 0 to 29% | Visual Growth Reduction (%) 10 Days After Application SETFA [2]: G (0-29); Visual Growth Reduction (%) 10 Days After Application HELAN [3]: A (95-100); Visual Growth Reduction (%) 10 Days After Application AVEFA (wild oats (Avena fatua)): G (0-29); Visual Growth Reduction (%) 10 Days After Application ECHCG [4]: G (0-29); pest or weed control at 140 g/ha [5, 12]: 0 to 29%; pest or weed control at 35 g/ha [5, 13]: 0 to 29%; pest or weed control at 70 g/ha [5, 13]: 85 to 94%; pest or weed control at 140 g/ha [5, 13]: 95 to 100%; pest or weed control at 35 g/ha [5, 14]: 0 to 29%; pest or weed control at 70 g/ha [5, 14]: 0 to 29%; pest or weed control at 140 g/ha [5, 14]: 0 to 29%; pest or weed control at 35 g/ha [5, 15]: 95 to 100%; pest or weed control at 70 g/ha [5, 15]: 95 to 100%; pest or weed control at 140 g/ha [5, 15]: 95 to 100%; pest or weed control at 35 g/ha [5, 16]: 0 to 29%; pest or weed control at 70 g/ha [5, 16]: 0 to 29%; pest or weed control at 140 g/ha [5, 16]: 0 to 29%; pest or weed control at 35 g/ha [5, 17]: 0 to 29%; pest or weed control at 70 g/ha [5, 17]: 0 to 29%; pest or weed control at 140 g/ha [5, 17]: 45 to 59%
COC(=O)c1nc(-c2ccc3cc[nH]c3c2)c(F)c(N)c1Cl [Compound 1.08] | 0 to 29% | 0 to 29% | 0 to 29% | 85 to 94% | 95 to 100% | 95 to 100% | 0 to 29% | 0 to 29% | 0 to 29% | 0 to 29% | 60 to 74% | 75 to 84% | 0 to 29% | 0 to 29% | 30 to 44% | 45 to 59% | 75 to 84% | 85 to 94% | 85 to 94% | 95 to 100% | activity when X is CF compared with X is CH (undesirable vegetation): significant increase in activity; melting point: 66 to 69 °C; pest or weed control at 140 g/ha [5, 12]: 95 to 100%; pest or weed control at 35 g/ha [5, 13]: 95 to 100%; pest or weed control at 70 g/ha [5, 13]: 95 to 100%; pest or weed control at 140 g/ha [5, 13]: 95 to 100%; pest or weed control at 35 g/ha [5, 14]: 45 to 59%; pest or weed control at 70 g/ha [5, 14]: 75 to 84%; pest or weed control at 140 g/ha [5, 14]: 85 to 94%; pest or weed control at 35 g/ha [5, 15]: 95 to 100%; pest or weed control at 70 g/ha [5, 15]: 95 to 100%; pest or weed control at 140 g/ha [5, 15]: 95 to 100%; pest or weed control at 35 g/ha [5, 16]: 95 to 100%; pest or weed control at 70 g/ha [5, 16]: 95 to 100%; pest or weed control at 140 g/ha [5, 16]: 95 to 100%; pest or weed control at 35 g/ha [5, 17]: 85 to 94%; pest or weed control at 70 g/ha [5, 17]: 95 to 100%; pest or weed control at 140 g/ha [5, 17]: 95 to 100%
